The test system of experiment [1] is ACE2 : SARS-CoV-2 Spike Alpha (B1.1.7/United Kingdom) variant. The format is binding. Particulars: read-out: IC50, Alpha (B117).
In experiment [2] the test system is SARS-CoV-2 variants (Alpha/Beta/Delta). The format is cell-based.
Experiment [3] has as its system ACE2 : SARS-CoV-2 Spike Gamma (P1/Brazil) variant. The format is binding.
The test system of experiment [4] is ACE2 : SARS-CoV-2 Spike Epsilon (B1429) variant. In kind it is binding.
Experiment [5] relates to ACE2 : SARS-CoV-2 Spike Beta (B1.351/South Africa) variant. In kind it is binding. Particulars: read-out: IC50, Beta (B1312).
The test system of experiment [6] is ACE2 : SARS-CoV-2 Spike Delta (B1 617 2/India) variant. In kind it is binding. To be noted: read-out: IC50, Delta (B1617).

Ends that are not written are not given here.

On to “Ac-KTFLDKFNHEAEDLFPGPKWSAFLKEQSTLAQMYG [Seq28]”, for which the IC50 in experiment [1] amounted to 24.6 ± 11 nM; in experiment [3], 41.7 ± 11 nM; in experiment [4], 28.8 ± 7 nM; in experiment [5], 31.5 ± 5 nM; in experiment [6], 29.2 ± 11 nM. The “fold stronger anti-SARS-CoV-2 activity than Remdesivir” value in experiment [2] turned out to be 200 fold.

For the origin of these results see patent publication US20230304010A1, “COMPOSITIONS AND METHODS FOR TREATING VIRAL INFECTIONS” (priority 2020, published 2023).
